# Patent publication US20190292189A1, “LIM KINASE INHIBITORS” (VIRONGY, LLC, priority 2016, published 2019)
# Legend:
# [1] = test system: phosphorylation of LIMK; assay: Western blot of LIMK phosphorylation in CEM-SS T cells; assay type: cell-based, human
# Method: FIG. 10. Chemical and Biochemical characterization of R10015. a, Chemical structure of R10015 and its docking into the crystal structure of LIMK1 (PDB ID 3S95, Chain A). […] CEM-SS T cells treated with R10015 (100 μM) for a time course, and the phosphorylation of cofilin, LIMK, and PAK1/2 were measured by Western Blot. Levels of each protein or GAPDH were also measured for loading control. d, R10015 inhibits Jurkat T cell chemotaxis in responding to SDF-1. e, R10015. f, R10015 inhibits chemotactic actin activity. Resting CD4 T cells were treated with R10015, and then exposed to SDF-1 for a time course. Actin polymerization were measured by FITC-phalloidin staining. g, the relative intensity of F-actin staining was also plotted.
# One million cells were lysed in NuPAGE LDS Sample Buffer (Invitrogen), separated by SDS-PAGE, and then transferred onto nitrocellulose membranes (Invitrogen). The membranes were washed in TBST for 3 min and then blocked for 30 min at room temperature with Starting Block blocking buffer (Pierce). For probing with different antibodies, blots were incubated with rabbit anti-LIMK1 antibodies (Cell Signaling), with rabbit anti-p-coflin antibodies (Cell Signaling) or with a mouse anti-PAK1/2 antibody (Cell Signaling). These antibodies were diluted in 2.5% milk/TBST and rocked overnight at 4° C. […]
# [2] = test system: HSV-1 (Herpes simplex virus); assay type: cell-based; conditions: Vero cells
# [3] = test system: surface CD4 and CXCR4 on CEM-SS T cells; assay: Surface staining of CD4 and CXCR4; assay type: cell-based, human
# Method: FIG. 11. R10015 inhibits HIV-1 DNA synthesis, nuclear migration, and virion release. a, Effects of R10015 on surface CD4 and CXCR4 expression. […] CEM-SS T cells were treated with R10015, and then infected with BlaM-Vpr tagged HIV-1(NL4-3) or HIV-1(VSV-G) to measure viral entry. c. R10015 inhibits viral DNA synthesis. CEM-SS T cells were treated with R10015 for 1 hour, and then infected with a single-cycle HIV-1(Env) for 2 hours in the presence of R10015. Following infection, cells were washed to remove HIV-1 and R10015. Viral DNA synthesis was measured by real-time PCR. d. R10015 inhibits 2-LTR circle DNA formation. Cells were similar treated with R10015 and infected. 2-TLR circles were quantified by real-time PCR. e. R10015 inhibits virion release. Cells were infected with HIV-1(Env) for 2 hours, washed, incubated for 12 hours, and then treated with R10015. Virion release was quantified by measuring p24 in the supernatant.
# Cells were stained with FITC-labeled monoclonal antibody against human CD4 (clone PRA-T4) or CXCR4 (clone 12G5) (BD Biosciences). Cells were stained on ice in PBS+0.1% BSA for 30 minutes, washed with cold PBS-0.5% BSA, and then analyzed on a FACSCalibur (BD Biosciences).
# [4] = test system: HIV-1 viral entry in CEM-SS T cells; assay: Viral entry assays (BlaM-Vpr, Nef-luciferase); assay type: cell-based; conditions: HIV-1 Vpr-β-lactamase or Nef-luciferase tagged virions
# [5] = test system: HIV-1(Env); assay: Virion release, p24 in supernatant; assay type: cell-based
structure (smiles),measurement,setting,value
"COC(=O)c1ccc2[nH]c(C3CCN(c4ncnc5[nH]cc(Cl)c45)CC3)nc2c1 [Compound R10015, Methyl 2-(1-(5-chloro-7H-pyrrolo[2,3-d]pyrimidin-4-yl)piperidin-4-yl)-1Hbenzo[d]imidazole-5-carboxylate]",phosphorylation of LIMK,[1],did not inhibit
same,HSV-1 infection,[2],inhibited
same,surface expression of CD4 and CXCR4,[3]; 1 hour treatment,did not alter
same,surface density of CD4,[3]; prolonged treatment (4 hours),slightly decreased
same,viral entry,[4],did not significantly inhibit
same,viral release,[5],inhibited
